Experiments:
Settings in all cases: incubation time: 72 h
BT-549 [1] = test: normalised viability (% of control), CellTiter-Blue; higher = more viable cells (100 = DMSO, 0 = benzethonium chloride kill control)
Outline: (§1)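 Plates were quality-checked by Z'-factor and normalised to vehicle (100) and a positive kill control (0). The underlying assay incubated breast cancer cell lines for 72 h on 384-well plates with compound, then added 2.5 µl CellTiter-Blue for 2 h at 37 °C and read at 560/590 nm. The value is normalised viability at a single listed concentration of the series.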

CAL-51 [2] = test: as above
Outline: as §1

Hs578T [3] = test: as above
Outline: as §1

MDA-MB-231 [4] = test: as above
Outline: as §1

HCC1937 [5] = test: as above
Outline: as §1

MDA-MB-453 [6] = test: as above
Outline: as §1

DU-4475 [7] = test: as above
Outline: as §1

HCC1143 [8] = test: as above
Outline: as §1

CAL-85-1 [9] = test: as above
Outline: as §1

SK-BR-3 [10] = test: as above
Outline: as §1

CAL-148 [11] = test: as above
Outline: as §1

HCC1599 [12] = test: as above
Outline: as §1

HDQ-P1 [13] = test: as above
Outline: as §1

MFM-223 [14] = test: as above
Outline: as §1

CAL-120 [15] = test: as above
Outline: as §1

MDA-MB-468 [16] = test: as above
Outline: as §1

BT-474 [17] = test: as above
Outline: as §1

MDA-MB-436 [18] = test: as above
Outline: as §1

BT-549 [19] = test: normalised response (% of control), CellTiter-Glo; higher = more viable cells (100 = DMSO, 0 = benzethonium chloride kill control)
Outline: (§2)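 Values are normalised signals, each belonging to one concentration of the series. Breast cancer cells (20 µl suspension) were seeded into 384-well plates with compound at 5 concentrations in 10-fold steps over a compound-specific 10,000-fold range and incubated 72 h. Readouts were CellTox Green fluorescence (485/520 nm), then CellTiter-Glo luminescence after 10 min at room temperature, with each plate set to 0.1 % DMSO as 100 and a positive kill control as 0.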

MCF-10A = test: as above
Outline: as §2

CAL-51 [20] = test: as above
Outline: as §2

Hs578T [21] = test: as above
Outline: as §2

MDA-MB-231 [22] = test: as above
Outline: as §2

HCC1937 [23] = test: as above
Outline: as §2

MDA-MB-453 [24] = test: as above
Outline: as §2

DU-4475 [25] = test: as above
Outline: as §2

HCC1143 [26] = test: as above
Outline: as §2

CAL-85-1 [27] = test: as above
Outline: as §2

SK-BR-3 [28] = test: as above
Outline: as §2

CAL-148 [29] = test: as above
Outline: as §2

HCC1599 [30] = test: as above
Outline: as §2

HDQ-P1 [31] = test: as above
Outline: as §2

MFM-223 [32] = test: as above
Outline: as §2

CAL-120 [33] = test: as above
Outline: as §2

MDA-MB-468 [34] = test: as above
Outline: as §2

BT-474 [35] = test: as above
Outline: as §2

MDA-MB-436 [36] = test: as above
Outline: as §2

Compound | normalised viability (BT-549 [1]) [%] | normalised viability (CAL-51 [2]) [%] | normalised viability (Hs578T [3]) [%] | normalised viability (MDA-MB-231 [4]) [%] | normalised viability (HCC1937 [5]) [%] | normalised viability (MDA-MB-453 [6]) [%] | normalised viability (DU-4475 [7]) [%] | normalised viability (HCC1143 [8]) [%] | normalised viability (CAL-85-1 [9]) [%] | normalised viability (SK-BR-3 [10]) [%] | normalised viability (CAL-148 [11]) [%] | normalised viability (HCC1599 [12]) [%] | normalised viability (HDQ-P1 [13]) [%] | normalised viability (MFM-223 [14]) [%] | normalised viability (CAL-120 [15]) [%] | normalised viability (MDA-MB-468 [16]) [%] | normalised viability (BT-474 [17]) [%] | normalised viability (MDA-MB-436 [18]) [%] | normalised response (BT-549 [19]) [%] | normalised response (MCF-10A) [%] | normalised response (CAL-51 [20]) [%] | normalised response (Hs578T [21]) [%] | normalised response (MDA-MB-231 [22]) [%] | normalised response (HCC1937 [23]) [%] | normalised response (MDA-MB-453 [24]) [%] | normalised response (DU-4475 [25]) [%] | normalised response (HCC1143 [26]) [%] | normalised response (CAL-85-1 [27]) [%] | normalised response (SK-BR-3 [28]) [%] | normalised response (CAL-148 [29]) [%] | normalised response (HCC1599 [30]) [%] | normalised response (HDQ-P1 [31]) [%] | normalised response (MFM-223 [32]) [%] | normalised response (CAL-120 [33]) [%] | normalised response (MDA-MB-468 [34]) [%] | normalised response (BT-474 [35]) [%] | normalised response (MDA-MB-436 [36]) [%]
C[C@]12C=CC(=O)C=C1CC[C@@H]1[C@@H]2C(=O)C[C@@]2(C)[C@H]1CC[C@]2(O)C(=O)CO [Prednisone] (1 nM) | 105 | 99.5 | 104 | 95.9 | 93.5 | 103 | 110 | 92.8 | 100 | 90.8 | 101 | 113 | 98.1 | 96.2 | 84.3 | 104 | 126 | 110 | 99.8 | 98.2 | 92.7 | 97.1 | 98.5 | 99.9 | 111 | 103 | 101 | 99.1 | 109 | 106 | 100 | 101 | 106 | 109 | 104 | 99.4 | 110
CO[C@H]1C[C@@H]2CC[C@@H](C)[C@@](O)(O2)C(=O)C(=O)N2CCCC[C@H]2C(=O)O[C@H]([C@H](C)C[C@@H]2CC[C@@H](O)[C@H](OC)C2)CC(=O)[C@H](C)/C=C(\C)[C@@H](O)[C@@H](OC)C(=O)[C@H](C)C[C@H](C)/C=C/C=C/C=C/1C [Sirolimus] (0.1 nM) | 88 | 78.8 | 74.4 | 85.2 | 85.3 | 99.4 | 94.8 | 105 | 93.9 | 90.8 | 105 | 91.9 | 100 | 80.3 | 102 | 94.3 | 84.2 | 103 | 89.9 | 108 | 96.3 | 102 | 96.9 | 103 | 95 | 98.9 | 102 | 96.1 | 91.1 | 101 | 108 | 100 | 100 | 94 | 93.8 | 101 | 94.3
CN1CCN(c2nc(C3=C(c4c[nH]c5ccccc45)C(=O)NC3=O)c3ccccc3n2)CC1 [Sotrastaurin] (1 nM) | 86.1 | 97 | 101 | 94.1 | 89.5 | 102 | 104 | 131 | 109 | 91.3 | 116 | 95.2 | 85.2 | 100 | 117 | 97.7 | 116 | 104 | 103 | 88 | 100 | 99.2 | 98 | 99 | 96.9 | 97.5 | 89.9 | 93 | 93.3 | 94.8 | 89.5 | 99.8 | 93 | 97 | 104 | 90.6 | 94
CC/C(=C(\c1ccccc1)c1ccc(OCCN(C)C)cc1)c1ccccc1 [Tamoxifen] (1 nM) | 81.6 | 90.2 | 118 | 95.1 | 88.8 | 107 | 104 | 104 | 110 | 102 | 113 | 84.7 | 105 | 93.3 | 104 | 106 | 81.7 | 96 | 96.4 | 111 | 99.3 | 102 | 106 | 102 | 110 | 98.6 | 109 | 101 | 103 | 103 | 94.3 | 103 | 102 | 99 | 104 | 105 | 109
COc1cc2c(N3CCN(C(=O)Nc4ccc(OC(C)C)cc4)CC3)ncnc2cc1OCCCN1CCCCC1 [Tandutinib] (0.1 nM) | 111 | 107 | 120 | 85.3 | 67.1 | 102 | 109 | 103 | 101 | 106 | 107 | 98 | 116 | 96.7 | 98.7 | 105 | 114 | 104 | 99.8 | 95.5 | 82.2 | 97.3 | 104 | 92.9 | 96.1 | 104 | 97.9 | 101 | 96.7 | 102 | 113 | 111 | 105 | 101 | 104 | 107 | 97.3
C[C@@H](C(=O)O)c1ccc(-c2ccccc2)c(F)c1 [Tarenflurbil] (1 nM) | 99.2 | 110 | 101 | 88.8 | 108 | 107 | 111 | 108 | 92.7 | 87.9 | 97.1 | 128 | 85.4 | 97.5 | 93.7 | 107 | 114 | 103 | 103 | 85.5 | 83.3 | 99.1 | 98.1 | 92.7 | 103 | 95.6 | 94.2 | 91.3 | 84.6 | 98.8 | 113 | 96.8 | 93.5 | 98.1 | 97.1 | 93.8 | 102
Cn1nnc2c(C(N)=O)ncn2c1=O [Temozolomide] (1 nM) | 100 | 95.5 | 102 | 93 | 113 | 98.1 | 128 | 118 | 103 | 126 | 103 | 109 | 96.6 | 102 | 107 | 96 | 86.8 | 95.7 | 104 | 104 | 92.3 | 99.8 | 94.8 | 99.3 | 97.6 | 97.5 | 95 | 97.5 | 98.3 | 96.2 | 90 | 96.3 | 94.9 | 99.5 | 100 | 95.4 | 92.3
CC[C@@H]1C(=O)N(C)c2cnc(Nc3ccc(C(=O)N[C@H]4CC[C@H](N5CCN(CC6CC6)CC5)CC4)cc3OC)nc2N1C(C)C [Volasertib] (0.1 nM) | 108 | 116 | 102 | 110 | 101 | 101 | 103 | 96.3 | 88.4 | 118 | 110 | 88.5 | 94.3 | 92 | 92.4 | 121 | 107 | 117 | 104 | 88.1 | 111 | 105 | 100 | 98.9 | 108 | 95.2 | 90.6 | 102 | 103 | 93 | 96.6 | 93.2 | 96.2 | 98.5 | 97.3 | 97.7 | 80.4
